Data published in patent US20090018021A1, “Methyl jasmonate decreases fruit detachment force of grapes” (Regents of the University of California, priority 2006, published 2009).
Several values for one entry are separate records, joined by “and”; a condition that tells them apart may be missing. Identical values can stand only once.

Experiments:
[1] = system: Thompson Seedless grapevines; test: Fruit detachment force (FDF), Thompson Seedless experiment; assay type: in vivo, grape; details: for FDF: ten days after treatment
Experimental: (§1) An experiment was conducted in a 40-year-old Thompson Seedless vineyard at the Kearney Agricultural Center in Parlier, California. The site was typical of conventional raisin vineyards, with head-trained, cane-pruned vines on a two-wire T-shaped trellis with a 0.6 m cross arm. The soil was a deep Hanford fine sandy loam.
(§2) The vineyard was divided into plots consisting of vine sections (within-row spaces between two adjacent vine trunks) of uniform appearance and crop load. Each plot was surrounded by guard vines within and between rows. Treatments consisted of 26 different solutions made up of various potential abscission agents (Table 1). Because the concentrations varied widely between agents, each solution was considered a different treatment, and a randomized complete block design was used. All treatments, except for coronatine, were replicated four times. Due to a lack of material, coronatine was only applied to two plots; therefore, data from that treatment were not subjected to statistical analysis though observations were made.
(§3) Composite berry samples were collected weekly to monitor soluble solids accumulation by the fruits. Samples consisted of about 100 berries collected from the top, middle and bottom of about 33 randomly selected clusters. Berries were homogenized in a blender, their juice filtered, and soluble solids measured with a temperature compensating digital refractometer (Palette 101, Atago, Farmingdale, N.Y.). Once the fruits amassed sufficient soluble solids for raisin making (>19 Brix), abscission agents were dissolved or dispersed in water with adjuvant added (0.1%, v/v, Latron B-1956™, Britz, Parlier, Calif.) except MeJA solutions which contained 0.2% adjuvant. Control solutions contained the adjuvant only (0.2% v/v). Immediately after their preparation, solutions were applied to the vines of each plot with a gasoline-powered back-pack sprayer (Solo, Newport News, R.I.) until runoff. Vines within harvest pruned (HP) plots were not treated with any solutions, but their canes were severed on the same day that solutions were applied.
(§4) The soil surface within each plot was covered with ground cloth to collect any berries that might fall from the canopy. […] In those plots and in the control and HP plots, all abscised berries were collected from the ground cloth into paper bags and placed in a forced air oven (60 C) until they reached a constant weight. Clusters of grapes on vines from all the plots were carefully harvested and brought into a laboratory where fruit detachment force (FDF) measurements were made. Any grapes that detached from the vines at harvest were considered to be retained by the vine until harvest. These berries were collected into paper bags and placed in a forced air oven to dry.
(§5) Three representative clusters were selected from all the clusters of each plot and ten rachis sections from the top, middle, and bottom of the three clusters were removed by cutting the rachis with shears. A berry from each section was placed in a jig attached to a force gauge (DPS-11, Imada Inc., Northbrook, Ill.). The rachis was pulled parallel to the fruit axis until it separated from the fruit. The force required to detach each berry from the rachis in grams-force was recorded as the fruit detachment force. The condition of each detached berry was noted, and the berries were placed in paper bags along with all the other berries that were picked from that plot. These berries were also placed in the forced air oven and dried to a constant weight. The proportion of berries that abscised from the vine was calculated on a dry weight basis by dividing the dry weight of the abscised berries in each plot by the combined weight of the retained and abscised berries in that plot. Finally, canopy damage in each plot was inspected visually and assigned a rating of 0 (no obvious foliar damage), 1 (appearance of slight foliar damage), 2 (appearance of moderate foliar damage), or 3 (appearance of severe foliar damage).

[2] = system: Thompson Seedless grapevines; test: Bud break and shoot growth six months after treatment, Thompson Seedless experiment; assay type: in vivo, grape; details: 2000 ppm, evaluated six months later
Experimental: Each plot was inspected again six months later when bud break and shoot growth were evaluated. To evaluate bud break, plots received one of the following scores; 0=shoots emerged from 0-20% of nodes; 1=shoots emerged from 20-40% of nodes, 2=shoots emerged from 40-60% of nodes, 3=shoots emerged from 60-80% of nodes, or 4=shoots emerged from 80-100% of nodes. Shoot growth in each plot was also evaluated on a five-point scale, based on the proportion of shoots that had progressed to the five-leaf stage (Eichorn-Lorenz stage 12; Eichorn and Lorenz, Phaenologische Entwicklungsstadien der Rebe. Nachrichtenbl. Deut. Pflanzenschutzd. (Braunschweig) 29:119-120 (1977)).

[3] = system: Thompson Seedless grapevines; test: Visual canopy damage rating, Thompson Seedless experiment; assay type: in vivo, grape; details: ten days after treatment
Excerpt: as §2
Composite berry samples were collected weekly to monitor soluble solids accumulation by the fruits. Samples consisted of about 100 berries collected from the top, middle and bottom of about 33 randomly selected clusters. […] Control solutions contained the adjuvant only (0.2% v/v). Immediately after their preparation, solutions were applied to the vines of each plot with a gasoline-powered back-pack sprayer (Solo, Newport News, R.I.) until runoff. Vines within harvest pruned (HP) plots were not treated with any solutions, but their canes were severed on the same day that solutions were applied.
as §5

citrus trees = details: cited from earlier work
Crimson Seedless grapes = test: Abscission and fruit detachment force, Crimson Seedless experiment; assay type: in vivo, grape
Experimental: An experiment was conducted in a fourteen-year-old vineyard of own-rooted Crimson Seedless grapes on an open-gable trellis. Individual clusters of grapes were sprayed to runoff with one of four solutions containing 0, 1125, 2250, or 4500 ppm MeJA and an adjuvant (0.2% v/v, Latron-B 1956). On Day 0, treatments were applied in a randomized, complete block design with clusters as observational units, and vines as blocks. Each spray treatment was applied to 4 replicate clusters. During treatment, clusters were surrounded with plastic shields to protect other clusters from overspray and runoff. The day after treatment, each cluster was enclosed in a plastic mesh bag to collect any berries that might abscise. Clusters were harvested 14 DAT. Ten rachis sections were collected from each cluster and FDF was measured as described previously. The condition of the detached berries was noted, and the berries from each cluster were then separately weighed and homogenized in a blender. Juices were filtered and soluble solids, pH, and titratable acidity of the filtered juices were determined using standard methods.
All data were subjected to analysis of variance using the general linear models procedure (PROC GLM) of SAS statistical software (SAS Inst., Cary, N.C.). Duncan's New Multiple Range Test was used to separate treatment means. […]

[4] = system: Thompson Seedless grapevines; test: Fruit drop (berry abscission) from treated vines, Thompson Seedless experiment; assay type: in vivo, grape; details: for Percent fruit drop (dry wt/dry wt): 10 days after treatment; for Berry abscission observed in plots: ten days after treatment, all 26 solutions compared
Experimental: as §1, §2, §3, §4, §5

Merlot grapevines = test: Fruit detachment force and fruit drop, Merlot; assay type: in vivo, grape; details: 4500 ppm, 14 DAT
Experimental: (§6) An experiment was conducted in a nine-year-old vineyard of own-rooted Cabernet Sauvignon and Merlot grapevines on a vertical two-wire […]. Whole vines were sprayed to runoff on Day 0 with solutions containing 0 or 4500 ppm MeJA and an adjuvant (Latron B-1956; 0.2% v/v) in a completely randomized design replicated four times. On 14 DAT, four representative clusters were collected from each of four vines and ten rachis sections were prepared from each cluster. Fruit detachment force was measured from berries attached to each section, as described previously. Condition of the detached berries was noted, and all the berries from each cluster were counted, weighed, and homogenized in a blender. The juice from each sample was filtered and soluble solids, pH, and titratable acidity of the filtered juices were determined using standard methods. All data were subjected to analysis of variance using the general linear models procedure (PROC GLM) of SAS statistical software (SAS Inst., Cary, N.C.). Duncan's New Multiple Range Test was used to separate treatment means.

[5] = system: Cabernet Sauvignon grapevines; test: Fruit detachment force and fruit drop, Cabernet Sauvignon; assay type: in vivo, grape; details: 4500 ppm, 14 DAT
Experimental: as §6

`NC1(C(=O)O)CC1` [VBC-30069] gave an FDF ([1]; 50 ppm) of 0.261 cd kg and an FDF ([1]; 150 ppm) of 0.266 abcd kg.
In the case of `CC1(C)OC[C@@H]2O[C@@]3(C(=O)O)OC(C)(C)O[C@H]3[C@@H]2O1` [Dikegulac], the Appearance of shoots [2] is reported as “cupped leaves and short internodes”, the “Canopy damage (0-3; none-severe)” value ([3]; 20 ppm) is reported as 1.00 cd and the “Canopy damage (0-3; none-severe)” value ([3]; 200 ppm) is reported as 1.25 bcd. The Canopy damage (0-3; none-severe) ([3]; 1000 ppm) was 0.5, the “Canopy damage (0-3; none-severe)” value ([3]; 2000 ppm) was 1.50 bcd and the FDF ([1]; 20 ppm) was 0.291 abc kg. The FDF ([1]; 200 ppm) was 0.27 ab kg, the FDF ([1]; 1000 ppm) was 0.288 ab kg and the FDF ([1]; 2000 ppm) was 0.176 efg kg. The Leaf loss expected (citrus trees; citrus, at certain times of the season (Pozo et al, 2004)) was “(Pozo et al, 2004). Expect 15-20%”.
For `CC/C=C\CC1C(=O)CCC1CC(=O)OC` (stereo not drawn) [MeJA, methyl jasmonate], the “FDF of berries retained after harvest versus concentration applied” value (Crimson Seedless grapes; 14 DAT, 0-4500 ppm) was “FDF decreased as a linear function of the concentration of MeJA applied”, the “Abscission of grapes from clusters” value (Crimson Seedless grapes; within 14 DAT, clusters sprayed with 1125, 2250 or 4500 ppm) was “did not abscise from any clusters” and the “Percent fruit drop (dry wt/dry wt)” value ([4]; 45 ppm) was 0.26 c percent. The “Percent fruit drop (dry wt/dry wt)” value ([4]; 450 ppm) was 6.37 c percent, the “Percent fruit drop (dry wt/dry wt)” value ([4]; 4500 ppm) was 50% and 50.71 a percent and the “Berry abscission observed in plots” value [4] was “berry abscission was only observed in plots treated with MeJA or coronatine”. The Abscised berries observed ([4]; within 2 days after treatment, ≧450 ppm (2 mM)) was “abscised berries were observed”, the FDF ([1]; 45 ppm) was 0.169 fg·kg and the FDF ([1]; 450 ppm) was 0.124 gh kg. The FDF ([1]; 2250 ppm) was 0.079 hi kg, the FDF ([1]; 4500 ppm) was 0.052 i kg and the “Reduction of FDF compared with cane severance” value ([1]; any concentration ≧450 ppm, 10 DAT) was “reduced FDF at least as effectively as cane severance”. For the same molecule, the “Reduction of FDF compared to non-treated vines” value (from here on “Reduction … to non-treated vines”) ([1]; lowest concentration tested, 10 DAT) was “reduced FDF by half”, the “Fruit drop (appeared, not measured)” value (Merlot grapevines) was “less than 10%” and the “Reduction … to non-treated vines” value (Merlot grapevines) was 75%. The “Fruit on treated trees dropped” value (citrus trees; citrus trees, 2250-4500 ppm, within 10 DAT (Hartmond et al. 2000)) was “about 20%”, the “FDF less than fruit from non-treated trees” value (citrus trees; citrus trees, solutions of 2250-4500 ppm (Hartmond et al. 2000)) was 75-80% and the “Fruit drop (appeared, not measured)” value [5] was “less than 10%”. For the same molecule, the “Reduction … to non-treated vines” value [5] was 66%.
In the case of `CC[C@H]1C=C(C(=O)N[C@@]2(C(=O)O)C[C@@H]2CC)[C@H]2CCC(=O)[C@H]2C1` [Coronatine], the “Fruit drop (observation, not statistically analysed)” value ([4]; 200 ppm, two plots only, 10 DAT) is listed as “fruit drop appeared similar to that of vines treated with 2250 ppm MeJA”, the “Berry abscission observed in plots” value [4] is listed as “berry abscission was only observed in plots treated with MeJA or coronatine” and the Defoliation expected (citrus trees; citrus (Burns et al., 2003)) is listed as “chlorosis. Expect ~10% defoliation”.
With `Cc1n[nH]c(Cl)c1[N+](=O)[O-]` [CMNP, 5-chloro-3-methyl-4-nitro-1H-pyrazole] the “Canopy damage (0-3; none-severe)” value ([3]; 20 ppm) was 1.25 cde, the “Canopy damage (0-3; none-severe)” value ([3]; 200 ppm) was 1.25 bcd and the “Canopy damage (0-3; none-severe)” value ([3]; 1000 ppm) was 1.75 bc. The “Canopy damage (0-3; none-severe)” value ([3]; 2000 ppm) was 2.75 a, the FDF ([1]; 20 ppm) was 0.244 cd kg and the FDF ([1]; 200 ppm) was 0.156 fg·kg. It also gave an FDF ([1]; 1000 ppm) of 0.161 fg·kg and an FDF ([1]; 2000 ppm) of 0.182 ef kg.
